Tests used:
[1] = molecular target: T1, Solute carrier organic anion transporter family member 1B1 (Homo sapiens, UniProt Q9Y6L6); conditions: chinese hamster, cho, 10 µM
T1 sequence (Q9Y6L6 whole entry): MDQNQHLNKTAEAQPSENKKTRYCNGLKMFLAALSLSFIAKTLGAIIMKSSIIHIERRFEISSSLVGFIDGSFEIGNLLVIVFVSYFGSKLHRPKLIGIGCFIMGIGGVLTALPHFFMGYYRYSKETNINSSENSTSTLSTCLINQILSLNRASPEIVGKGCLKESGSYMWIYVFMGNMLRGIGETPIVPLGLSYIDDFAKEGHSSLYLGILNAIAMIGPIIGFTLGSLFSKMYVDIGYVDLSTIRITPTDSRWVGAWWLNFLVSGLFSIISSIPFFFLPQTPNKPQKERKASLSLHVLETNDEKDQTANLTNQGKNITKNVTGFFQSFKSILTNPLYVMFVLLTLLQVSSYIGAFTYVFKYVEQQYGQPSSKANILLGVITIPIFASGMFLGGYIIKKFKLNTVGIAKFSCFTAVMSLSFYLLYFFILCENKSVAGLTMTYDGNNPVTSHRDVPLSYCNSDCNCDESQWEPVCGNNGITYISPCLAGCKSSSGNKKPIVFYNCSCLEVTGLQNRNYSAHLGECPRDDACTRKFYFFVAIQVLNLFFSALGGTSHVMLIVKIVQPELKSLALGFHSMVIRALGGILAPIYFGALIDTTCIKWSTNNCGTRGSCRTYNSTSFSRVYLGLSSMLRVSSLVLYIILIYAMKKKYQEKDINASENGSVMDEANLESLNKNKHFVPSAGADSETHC

[2] = molecular target: T2, Solute carrier organic anion transporter family member 1B3 (Homo sapiens, UniProt Q9NPD5); conditions: chinese hamster, cho, 10 µM
T2 sequence (Q9NPD5 whole entry): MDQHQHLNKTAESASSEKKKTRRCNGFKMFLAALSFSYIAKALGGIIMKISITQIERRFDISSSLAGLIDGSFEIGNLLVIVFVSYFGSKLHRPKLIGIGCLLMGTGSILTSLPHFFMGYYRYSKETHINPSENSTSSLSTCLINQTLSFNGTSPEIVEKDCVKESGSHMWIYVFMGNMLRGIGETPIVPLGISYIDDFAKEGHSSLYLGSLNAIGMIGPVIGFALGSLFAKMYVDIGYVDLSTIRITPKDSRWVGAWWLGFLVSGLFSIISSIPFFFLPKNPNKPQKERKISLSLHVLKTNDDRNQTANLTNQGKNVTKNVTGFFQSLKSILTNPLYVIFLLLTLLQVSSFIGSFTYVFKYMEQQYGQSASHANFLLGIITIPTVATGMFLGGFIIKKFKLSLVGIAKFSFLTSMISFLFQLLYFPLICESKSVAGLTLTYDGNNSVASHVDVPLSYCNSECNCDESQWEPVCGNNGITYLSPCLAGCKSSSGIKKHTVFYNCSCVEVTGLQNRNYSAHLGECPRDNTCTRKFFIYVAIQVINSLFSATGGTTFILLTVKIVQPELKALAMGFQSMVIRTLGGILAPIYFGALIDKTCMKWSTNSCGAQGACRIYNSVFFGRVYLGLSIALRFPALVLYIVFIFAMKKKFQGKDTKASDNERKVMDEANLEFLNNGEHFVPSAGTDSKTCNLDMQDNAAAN

| SMILES | residual activity [1] | residual activity [2] |
| --- | --- | --- |
| COc1c(Cl)c(C)c2c(c1Cl)OC(=O)c1c(C)c(Cl)c(OC)c(Cl)c1O2 [DIPLOICIN METHYL ETHER] | 97.17% | 103.5% |
| CC(=O)Oc1ccccc1C(=O)Oc1ccccc1C(=O)O [DIPLOSALSALATE] | 91.69% | 93.37% |
| CC[C@H](C)[C@H](N)C(=O)N1CCC[C@H]1C(=O)N[C@H](C(=O)O)[C@@H](C)CC [DIPROTIN A] | 108.3% | 116.8% |
| CC(=O)Oc1cccc(C(=O)O)c1OC(C)=O [DIPYROCETYL] | 115.7% | 102.1% |
| Cc1c(N(C)CS(=O)(=O)[O-])c(=O)n(-c2ccccc2)n1C.[Na+] [DIPYRONE SODIUM] | 72.95% | 89.51% |
| CC[C@H]1OC(=O)[C@H](C)[C@@H](O[C@H]2C[C@@](C)(OC)[C@@H](O)[C@H](C)O2)[C@H](C)[C@@H](O[C@@H]2O[C@H](C)C[C@H](N(C)C)[C@H]2O)[C@](C)(O)C[C@@H](C)[C@@H]2N[C@@H](COCCOC)O[C@H]([C@H]2C)[C@]1(C)O [DIRITHROMYCIN] | 109.1% | 95.43% |
| C[C@@H]1CC[C@@]2(OC1)O[C@H]1C[C@H]3[C@@H]4CC=C5C[C@@H](O)CC[C@]5(C)[C@H]4CC[C@]3(C)[C@H]1[C@@H]2C [DISOGENIN] | 85.54% | 85.35% |
| CCOP(=S)(OCC)SCCSCC [DISULFOTON] | 113.3% | 105.1% |
| CC(CCc1ccc(O)cc1)NCCc1ccc(O)c(O)c1.Cl (configuration not stated) [DOBUTAMINE HYDROCHLORIDE] | 91.62% | 105.8% |
| Cl.NCCc1ccc(O)c(O)c1 [DOPAMINE HYDROCHLORIDE] | 66.46% | 73.49% |
| CCN(CC)CCOC(=O)C(c1ccccc1)C1CCCCC1.Cl (configuration not stated) [DROFENINE HYDROCHLORIDE] | 99.44% | 112.3% |
| OCC(O)CN1CCN(c2ccccc2)CC1 (configuration not stated) [DROPROPIZINE] | 71.05% | 96.03% |
| COc1ccc([C@H]2COc3c(ccc(O)c3OC)C2)c(OC)c1O [DUARTIN (-)] | 88.51% | 86.99% |
| COc1ccc2c(c1OC)OC[C@@H](c1ccc(OC)c(OC)c1OC)C2 [DUARTIN, DIMETHYL ETHER] | 113.2% | 110.8% |
| CCCCOc1ccc(C(=O)CCN2CCCCC2)cc1.Cl [DYCLONINE HYDROCHLORIDE] | 170.9% | 83.62% |
| Cn1c(=O)c2c(ncn2CC(O)CO)n(C)c1=O (configuration not stated) [DYPHYLLINE] | 92.75% | 94.34% |
| CCOc1ccc2c(c1)C(C)=CC(C)(C)N2 [E324] | 108.3% | 119.7% |
| CC1(C)CC[C@]2(C(=O)O)[C@H](O)C[C@]3(C)C(=CC[C@@H]4[C@@]5(C)CC[C@H](O)C(C)(C)[C@@H]5CC[C@]43C)[C@@H]2C1 [ECHINOCYSTIC ACID] | 69.3% | 30.48% |
| Clc1ccc(COC(Cn2ccnc2)c2ccc(Cl)cc2Cl)cc1.O=[N+]([O-])O (configuration not stated) [ECONAZOLE NITRATE] | 146.5% | 127.4% |
| O=C(O)CN(CCN(CC(=O)O)CC(=O)O)CC(=O)O [EDETIC ACID] | 81.77% | 82.24% |
| CCc1cn([C@H]2C[C@H](O)[C@@H](CO)O2)c(=O)[nH]c1=O [EDOXUDINE] | 92.48% | 109.7% |

| SMILES | residual activity [1] | residual activity [2] |
| --- | --- | --- |
| CC[N+](C)(C)c1cccc(O)c1.[Cl-] [EDROPHONIUM CHLORIDE] | 79.44% | 93.08% |
| CCC1(C2=NCCN2)Cc2ccccc2O1.Cl (configuration not stated) [EFAROXAN HYDROCHLORIDE] | 80.2% | 83.03% |
| CCCCCCCC/C=C/CCCCCCCCOP(=O)([O-])OCC[N+](C)(C)C [ELAIDYLPHOSPHOCHOLINE] | 66.64% | 84.98% |
| O=c1oc2c(O)c(O)cc3c(=O)oc4c(O)c(O)cc1c4c23 [ELLAGIC ACID] | 75.25% | 65.47% |
| CCCCCCCCCCCC1=C(O)C(=O)C=C(O)C1=O [EMBELIN] | 98.02% | 94.22% |
| O=C(O)c1cc(O)c2c(c1)C(=O)c1cc(O)cc(O)c1C2=O [EMODIC ACID] | 150% | 72.9% |
| Cc1cc(O)c2c(c1)C(=O)c1cc(O)cc(O)c1C2=O [EMODIN] | 135% | 119.5% |
| CCOC(=O)[C@H](CCc1ccccc1)N[C@@H](C)C(=O)N1CCC[C@H]1C(=O)O.O=C(O)/C=C\C(=O)O [ENALAPRIL MALEATE] | 190.1% | 110.9% |
| O=C(CC[N+](=O)[O-])OC[C@H]1O[C@@H](O)[C@H](OC(=O)CC[N+](=O)[O-])[C@@H](OC(=O)CC[N+](=O)[O-])[C@@H]1OC(=O)CC[N+](=O)[O-] [ENDECAPHYLLIN X] | 80.29% | 82.04% |
| O=S1OCC2C(CO1)C1(Cl)C(Cl)=C(Cl)C2(Cl)C1(Cl)Cl (configuration not stated) [ENDOSULFAN] | 111.6% | 117.8% |
| ClC1=C(Cl)C2(Cl)C3C4CC(C5OC45)C3C1(Cl)C2(Cl)Cl (configuration not stated) [ENDRIN] | 107.3% | 121% |
| CC(C)C[C@H](NC(=O)[C@H](Cc1ccccc1)NC(=O)CNC(=O)CNC(=O)[C@@H](N)Cc1ccc(O)cc1)C(=O)O [ENKEPHALIN] | 84.58% | 87.68% |
| CCn1cc(C(=O)O)c(=O)c2cc(F)c(N3CCNCC3)nc21 [ENOXACIN] | 111.1% | 89.58% |
| C=C[C@@](C)(O)CCC1C(=C)CCC2[C@@](C)(CO)CCC[C@]12C (stereo partly drawn) [EPI(13)TORULOSOL] | 109% | 115.1% |
| Oc1ccc([C@H]2Oc3cc(O)cc(O)c3C[C@H]2O)cc1 [EPIAFZELECHIN (2R,3R)(-)] | 48.25% | 26.68% |
| COc1ccc([C@H]2Oc3cc(OC)cc(OC)c3C[C@H]2O)cc1 [EPIAFZELECHIN TRIMETHYL ETHER] | 79.64% | 113.6% |
| C[C@]12CC[C@H](O)C[C@@H]1CC[C@@H]1[C@@H]2CC[C@]2(C)C(=O)CC[C@@H]12 [EPIANDROSTERONE] | 55.38% | 91.34% |
| CC(=O)Oc1cc(OC(C)=O)c2c(c1)O[C@H](c1ccc(OC(C)=O)c(OC(C)=O)c1)[C@H](OC(C)=O)C2 [EPICATECHIN PENTAACETATE] | 74.79% | 76.08% |
| CC(C)CCC[C@@H](C)[C@H]1CC[C@H]2[C@@H]3CC[C@@H]4C[C@H](O)CC[C@]4(C)[C@H]3CC[C@]12C [EPICOPROSTEROL] | 90.49% | 97.38% |
| O=C(Oc1cc(O)cc2c1C[C@@H](OC(=O)c1cc(O)c(O)c(O)c1)[C@@H](c1cc(O)c(O)c(O)c1)O2)c1cc(O)c(O)c(O)c1 [EPIGALLOCATECHIN 3,5-DIGALLATE] | 55.31% | 82.14% |

From ChEMBL document CHEMBL3039007, “Structure-based identification of OATP1B1/3 inhibitors” (Mol Pharmacol, 2013)
